Experimental data: US20220249484A1, “METHODS FOR PREDICTING RESPONSIVENESS OF CANCER TO FERROPTOSIS-INDUCING THERAPIES” (Memorial Sloan Kettering Cancer Center, priority 2019, published 2022)

Columns and labels:
HCT116 cells [1] = assay: Ferroptosis in HCT116 cells expressing PAK-CAAX; format: cell-based, human; conditions: constitutively active PAK-CAAX versus inactive PAK^K298R-CAAX
MEFs = assay: Ferroptosis and lipid ROS in MEFs; format: cell-based, mouse
Experimental: (§1) Measurement of cell death, cell viability and lipid peroxidation. Cell death was analyzed by propidium iodide (Invitrogen, Waltham, Mass., USA) or SYTOX Green (Invitrogen) staining followed by microscopy or flow cytometry. For 3D spheroids, cell viability was determined using the CellTiter-Glo® 3D Cell Viability Assay (Promega, Madison, Wis., USA) according to the manufacturer's instructions. Viability was calculated by normalizing ATP levels to spheroids treated with normal full media. To analyze lipid peroxidation, cells were stained with 5 μM BODIPY-C11 (Invitrogen) for 30 minutes at 37° C. followed by flow cytometric analysis.
Merlin-regulated ferroptosis in cell density dependent manner was also observed in MEFs, which are not of epithelial origin. Cell death of MEFs with different cell density induced by cystine starvation for 12 h was measured by PI staining (FIG. 15A), and flow cytometry (FIG. 15B). The effect of cystine starvation on lipid ROS production in MEFs cells with different cell density (6 h treatment) is also shown in FIG. 15B. […] As shown in FIGS. 15A-15D, increased cell density mitigated both cell death and lipid ROS generation induced by cystine starvation, erastin and RSL3 in MEFs.
MEFs also regulated the activity of YAP at high density in a Merlin-dependent manner. MEFs seeded at increasing density were probed for YAP localization by Immunofluorescence (FIG. 15E). The effect of Merlin was assessed by infecting MEFs with shMerlin lentivirus and selected with puromycin. […] As shown in FIGS. 15E-15F, with increasing cell confluence, there was an increase of YAP nuclear exclusion in MEFs, which was attenuated by Merlin knockdown.

HCT116 cells [2] = assay: Cell density-dependent induction of ferroptosis in HCT116 cells (cell death and lipid ROS by flow cytometry); format: cell-based, human; conditions: 5 μM RSL3; different cell density; cell death 24 h, lipid ROS 16 h
Experimental: Induction and inhibition of ferroptosis. To induce ferroptosis, cells with different density were seeded in 6-well plates. For cystine-starvation experiments, cells were washed with PBS twice and then cultured in cystine-free medium in the presence of 10% (v/v) dialyzed FBS for the indicated time. The ferroptosis inducing compounds erastin and RSL3 and the ferroptosis inhibitor Ferrostatin-1 were purchased from Sigma-Aldrich (St. Louis, Mo., USA).
as §1, with “To analyze lipid peroxidation, cells were stained with 5 μM BODIPY-C11 (Invitrogen) for 30 minutes at 37° C. followed by flow cytometric analysis.” left out
To test erastin-induced ferroptosis, HCT116 cells with different cell density were treated with 30 μM erastin and quantification of cell death by propidium iodide (PI) staining followed by flow cytometry (after 30 h of erastin treatment). Lipid ROS production was assessed by C11-BODIPY staining followed by flow cytometry (after 24 h of erastin treatment). […]

HCT116 cells [3] = assay: Ferroptosis in confluent HCT116 cells expressing shEcad, shMerlin or shLats1/2; format: cell-based, human; conditions: cell death 18 h, lipid ROS 14 h; versus shNT
Experimental: as §1
The involvement of the Hippo signaling in the regulation of ferroptosis by cell-cell contact was also assessed. Cells depleted of Ecad, Merlin, or Lats were generated using shRNA technology. HCT116 cells were infected by lentiviruses expressing shRNA sequences targeting Ecad (shEcad), Merlin (shMerlin), or Lats1/2 (shLats1/2), as indicated. Knockdown efficiency was confirmed by Western blot (FIG. 2B). […] Cell death was measured at 30 h using SYTOX Green staining followed by flow cytometry. Lipid ROS was measured at 24 hours using C11-BODIPY staining coupled with flow cytometry. […] Cell death was measured at 18 h and lipid ROS was measured at 14 h (FIG. 11A).

MSTO-211H cells = assay: Ferroptosis in confluent MSTO-211H cells (shMerlin, shNcad); format: cell-based, human
Experimental: as §1
To confirm the ferroptosis-regulating role of Merlin in mesothelioma cells, the effect of Merlin knockdown on ferroptosis sensitivity was assessed. MSTO-211H cells were infected with lentiviruses expressing shMerlin. RNAi knockdown efficiency was confirmed by Western blot (FIG. 3F). Then, shNT or shMerlin MSTO-211H cells were cultured to high confluence, at which point they were treated with media containing or lacking cystine, with or without Fer-1 for 24 h. Cell death was measured by SYTOX Green staining followed by flow cytometry (FIG. 3G). To measure lipid reactive species, shNT or shMerlin MSTO-211H cells were treated for 18 h, at which point they were stained with 2 μM C11-BODIPY for lipid ROS measurement (FIG. 311). Confluent MSTO-211H cells expressing shNT or shMerlin were also treated with 1 μM RSL3 with or without […] Fer-1. Cell death (left, 24 h after treatment) and lipid ROS production (right, 16 h) were measured (FIG. 13B).
Therefore, the cell density dependence of ferroptosis is not limited to epithelial cells expressing Ecad. […] To assess the expression of N-cadherin in MSTO-211H mesothelioma cells, the cells were cultivated at different cell densities, and the levels of Ncad, p-YAP and total YAP were analyzed by Western blot. […] Therefore, the potential role of Ncad in ferroptosis was tested. MSTO-211H cells were infected with lentiviruses expressing Ncad shRNA (shNcad) and selected with puromycin.

HCT116 cells [4] = assay: RSL3-induced cell death in HCT116 cells overexpressing TFRC and/or ACSL4; format: cell-based, human; conditions: 2 μM RSL3, 24 h; SYTOX Green
Experimental: To test whether TFRC and ACSL4 can directly enhance ferroptosis in confluent cells, TFRC and ACSL4 separately or in combination were overexpressed. HCT116 cells were transduced with retroviral particles containing mCherry-ACSL4, transfected with TFRC, or both. Expression was assayed by Western blot. Two bands were detected for mCherry-ACSL4, representing the full-length mCherry-ACSL4 and that with mCherry tag truncated (FIG. 17A). Additionally, cells were plated at the indicated density and treated with 2 μM RSL3 for 24 h. Cell death was measured by SYTOX Green staining coupled with flow cytometry.

## COC(=O)c1ccc([C@@H]2c3[nH]c4ccccc4c3C[C@@H](C(=O)OC)N2C(=O)CCl)cc1 [RSL3]
HCT116 cells [1]
  RSL3-induced ferroptosis in PAK-CAAX expressing cells: enhanced RSL3-induced ferroptosis
MEFs; 1 μM RSL3, ferroptosis 8 h, lipid ROS 5 h
  RSL3-induced ferroptosis and lipid ROS in MEFs at different densities: ferroptosis (8 h) and lipid ROS production (5 h) was also observed
MEFs; RSL3 1 μM, 8 h
  RSL3-induced cell death and lipid ROS in confluent Merlin RNAi MEFs: increased cell death and lipid ROS production
HCT116 cells [2]
  RSL3-induced ferroptosis (cell death, lipid ROS): induces HCT116 human colon cancer cells to undergo ferroptosis in a cell density-dependent manner
HCT116 cells [3]
  RSL3-induced cell death and lipid ROS after knockdown of Ecad, Merlin, Lats1/2: sensitized HCT116 cells to ferroptosis and increased lipid ROS accumulation
MSTO-211H cells; 1 μM RSL3, 16 h
  sensitivity of confluent shNcad cells to RSL3 (cell death): sensitized these cells to ferroptosis
MSTO-211H cells; 1 μM RSL3, cell death 24 h, lipid ROS 16 h
  sensitivity of confluent shMerlin cells to RSL3 (cell death, lipid ROS): became sensitive
HCT116 cells [4]
  RSL3-induced cell death, confluent cells co-expressing TFRC and ACSL4: further enhanced cell death
  RSL3-induced cell death, confluent cells expressing either TFRC or ACSL4: partially sensitized to ferroptosis
